What follows are compounds tested on CD86 on rat B cells (assay: Rat B cell activation in whole blood (CD86 upregulation after anti-IgM and IL-4)). Details: anti-IgM + rIL-4 stimulation, CD86 on CD45RA+ B cells, read-out: RWB/IC50 CD86.
Type: cell-based
Method: PI3Kδ has been recognized to modulate B cell function when cells are stimulated through the B cell receptor (BCR) (Okkenhaug et al. Science 297:1031 (2002). For assessing the inhibitory property of compounds on B cell activation, the upregulation of activation markers CD86 on rat B cells derived from whole blood is measured after stimulation with anti-IgM and recombinant IL-4. The CD86 molecule (also known as B7-2) is primarily expressed on antigen-presenting cells, including B cells. Resting B cells express CD86 at low levels, but upregulate it following stimulation of e.g. the BCR or IL-4 receptor. CD86 on a B cell interacts with CD28 on T cells. This interaction is required for optimal T cell activation and for the generation of an optimal IgG1 response (Carreno et al. Annu Rev Immunol. 20:29 (2002)).
Whole blood was collected from the abdominal aorta adult male Lewis rats (LEW/HanHsd) oby using a 10 ml syringe with hypodermic needle pre-coated with sodium heparin. Blood was transferred into 50 ml Falcon tubes and the anticoagulant concentration was adjusted to 100 U/ml.
For assessment of the in vitro effects of immunosuppressive drugs, heparinized blood was prediluted to 50% with medium. As medium served DMEM high glucose (Animed cat#1-26F01-I) supplemented with 100 U/ml penicillin, […], 2 mM L-glutamin, 50 mg/ml dextran 40 and 5% fetal calf serum (FCS, Fetaclone I, Gibco #10270-106). Then, 190 μl prediluted blood was spiked with 10 μl of pre-diluted test compound in 96 well U-bottomed microtiter plates (Nunc) resulting in a 3-fold serial dilution with a concentration range from 20 to 0.0003 μM. Control wells were pretreated with DMSO to obtain a final concentration of 0.5% DMSO. Cultures were set up in duplicates, mixed well by agitation on a plate shaker (Heidolph Titramax 101; 30 sec, speed 900), pipetting up and down and agitated on the plate shaker again. Cultures were incubated at 37° C., 5% CO2 for 1 hr. Then, 20 μl of polyclonal goat anti-rat IgM Ab (Serotec, cat#302001) and 10 μl of diluted recombinant rIL-4 (Immunotools #340085) were added to obtain final concentrations of 30 μg/ml and 5 ng/ml, respectively. Plates were mixed by agitation on a plate shaker as above and incubated for 24 hrs at 37° C., 5% CO2.
After incubation, 15 μl of a 25 mM EDTA solution was added per well and shaken for 15 min to detach adherent cells. For analysis of surface activation markers, samples were then stained with PE-Cy5-labeled anti-ratCD45RA (BD cat#557015) to allow gating on B cells in FACS analysis. In addition, samples were stained with PE-labeled anti-rat CD86 (BD cat#551396). All staining procedures were performed at RT for 30 min in the dark. After incubation, samples were transferred to 96-deep well V-bottomed microtiter plates (Corning #396096) containing 2 ml/well of BD Lysing Solution (BD #349202). After lysis of erythrocytes samples were washed with 2 ml of CeIIWASH (BD #349524). Data was acquired on an LSRII or FACScalibur flow cytometer (BD Biosciences) using Cellquest Plus or DIVA (version 6.1.1) software, respectively. Lymphocytes were gated in the FSC/SSC dot blot according to size and granularity and further analyzed for expression of CD45RA and activation markers. Data were calculated from dot blots or histograms as percentage of cells positively stained for activation markers within the CD45RA+ population.
The percentage inhibition of B cell activation after exposure to drug was calculated by the following formula: […]
ORIGIN 7 software (Origin Lab Corporation, Northampton, Mass.) was used for non-linear regression curve fitting. The drug concentration resulting in 50% inhibition (IC50) was obtained by fitting the Hill equation to inhibition data.

IC50 [nM] | Structure (SMILES)
47 | COc1ncc(-c2ccnc3ccc(O[C@H]4CCN(C(=O)[C@@H]5CCN(C(C)=O)C5)C4)cc23)cc1C(F)F [Example A24, 1-((R)-3-{(S)-3-[4-(5-Difluoromethyl-6-methoxy-pyridin-3-yl)-quinolin-6-yloxy]-pyrrolidine-1-carbonyl}-pyrrolidin-1-yl)-ethanone]
46.2 | Cc1cc(-c2ccnc3cc(F)c(O[C@H]4CCN(C(=O)C5CCOCC5)C4)cc23)cnc1S(C)(=O)=O [Example C2, {(S)-3-[7-Fluoro-4-(6-methanesulfonyl-5-methyl-pyridin-3-yl)-quinolin-6-yloxy]-pyrrolidin-1-yl}-(tetrahydro-pyran-4-yl)-methanone]
43 | COc1ncc(-c2ccnc3ccc(O[C@H]4CCN(C(=O)C5CCS(=O)(=O)CC5)C4)cc23)cc1C(F)F [Example A6, {(S)-3-[4-(5-Difluoromethyl-6-methoxy-pyridin-3-yl)-quinolin-6-yloxy]-pyrrolidin-1-yl}-(1,1-dioxo-hexahydro-1lambda*6*-thiopyran-4-yl)-methanone]
107 | COc1ncc(-c2ccnc3ccc(O[C@H]4CCN(C(=O)C5CCS(=O)(=O)CC5)C4)c(C)c23)cc1C [Example B3, (1,1-Dioxo-hexahydro-1lambda*6*-thiopyran-4-yl)-{(S)-3-[4-(6-methoxy-5-methyl-pyridin-3-yl)-5-methyl-quinolin-6-yloxy]-pyrrolidin-1-yl}-methanone]
59 | COc1ncc(-c2ccnc3ccc(O[C@H]4CCN(C(=O)[C@@H]5CCN(C(C)=O)C5)C4)cc23)cc1C [Example A10, 1-((R)-3-{(S)-3-[4-(6-Methoxy-5-methyl-pyridin-3-yl)-quinolin-6-yloxy]-pyrrolidine-1-carbonyl}-pyrrolidin-1-yl)-ethanone]
78 | COc1ncc(-c2ccnc3ccc(O[C@H]4CCN(C(=O)[C@@H]5CCN(C(C)=O)C5)C4)c(C)c23)cc1C(F)F [Example B1, 1-((R)-3-{(S)-3-[4-(5-Difluoromethyl-6-methoxy-pyridin-3-yl)-5-methylquinolin-6-yloxy]-pyrrolidine-1-carbonyl}-pyrrolidin-1-yl)-ethanone]

More lines, now with the values behind:

Structure (SMILES) | IC50 [nM]
COc1ncc(-c2ccnc3cc(F)c(O[C@H]4CCN(C(=O)C5CCS(=O)(=O)CC5)C4)cc23)cc1C [Example C1, (1,1-Dioxo-hexahydro-1lambda*6*-thiopyran-4-yl)-{(S)-3-[7-fluoro-4-(6-methoxy-5-methyl-pyridin-3-yl)-quinolin-6-yloxy]-pyrrolidin-1-yl}-methanone] | 86.5
COc1ncc(-c2ccnc3ccc(O[C@H]4CCN(C(=O)C5CCS(=O)(=O)CC5)C4)cc23)cc1Cl [Example A1, {(S)-3-[4-(5-Chloro-6-methoxy-pyridin-3-yl)-quinolin-6-yloxy]-pyrrolidin-1-yl}-(1,1-dioxo-hexahydro-1lambda*6*-thiopyran-4-yl)-methanone] | 73
CCC(=O)N1CC[C@H](Oc2ccc3nccc(-c4cnc(S(C)(=O)=O)c(C)c4)c3c2)C1 [Example A25, 1-{(S)-3-[4-(6-Methanesulfonyl-5-methyl-pyridin-3-yl)-quinolin-6-yloxy]-pyrrolidin-1-yl}-propan-1-one] | 443
COc1ncc(-c2ccnc3ccc(O[C@H]4CCN(C(=O)C5CCS(=O)(=O)CC5)C4)cc23)cc1C [Example A15, (1,1-Dioxo-hexahydro-1lambda*6*-thiopyran-4-yl)-{(S)-3-[4-(6-methoxy-5-methyl-pyridin-3-yl)-quinolin-6-yloxy]-pyrrolidin-1-yl}-methanone] | 101

— patent publication US20150148377A1, “Quinoline Derivatives” (NOVARTIS AG, priority 2011, published 2015)
